Source: patent publication US12195457B2, “Aromatic ring derivative as immunoregulation and preparation method and application of aromatic ring derivative” (SHANGHAI JEMINCARE PHARMACEUTICALS CO., LTD, priority 2018, dated 2025)

Tests used:
S1P1 [1] = target: T1, S1P1 (Homo sapiens, UniProt P21453); experiment: S1P1 mediated inhibition of forskolin induced cAMP (PathHunter CHO-K1 EDG1 cells); assay type: cell-based
T1 construct: host or cells: CHO-K1
Procedure: The cell line used in the test was PathHunter® CHO-K1 EDG1 β-Arrestin Cell Line, supplier: DiscoverX, catalog number: 93-0207C2. The inhibitory effect of compounds on S1P1 mediated forskolin induced cAMP activity was evaluated.
Different concentrations of compounds and a final concentration of 0.6 μM forskolin were added to the test plate wells for each test, and the mixture was centrifuged at 1000 rpm for 10 seconds. A frozen cell was taken, washed twice with HBSS buffer and resuspended. 5000 cells were added to test plates per well, the mixture was shaked for 20 seconds, centrifuged at 1000 rpm for 10 seconds, and incubated at room temperature for 60 minutes. Anti-cAMP-Eu^2+-Cryptate and cAMP-d2 were added. Then the mixture was shaked for 20 seconds, centrifuged at 1000 rpm for 10 seconds, incubated at room temperature for 60 minutes, and the plate was read on an Envision plate reader. The data was analyzed by nonlinear regression to determine the EC50 of the compounds for the inhibition of cAMP induced by forskolin.

S1P1 [2] = target: T1, S1P1; experiment: S1P1 mediated β-arrestin reporter activation (PathHunter CHO-K1 EDG1 β-Arrestin Cell Line); assay type: cell-based; conditions: 90 minutes incubation at 37° C.
Procedure: The cell line used in the test was PathHunter® CHO-K1 EDG1 β-Arrestin Cell Line, supplier: DiscoverX, catalog number: 93-0207C2. According to the supplier's instructions, the cells were added to the test plate according to 25 μL cell suspension containing 5000 cells per well, and cultured at 37° C. for 20 hours. Compounds of 10 concentrations diluted 4 times were added to the cell culture medium and incubated at 37° C. for 90 minutes. The detection solution was prepared, 12 μL per well, incubated at room temperature for 60 minutes, the plate was read on an Envision plate reader. The data was analyzed by nonlinear regression to determine the EC50 of β-arrestin activity.

S1P1 [3] = target: T1, S1P1; experiment: S1P1 receptor internalization (FACS, CHO-K1 EDG1 cells); assay type: cell-based; conditions: 2 hours incubation; read-out: S1P1 internalized EC50
Procedure: 1. CHO-K1 DEG1 cells (PathHunter® CHO-K1 EDG1 β-Arrestin Cell Line, supplier: DiscoverX, catalog number: 93-0207C2), and culture medium was removed (F12 medium 1000 mL, 10% FBS, 800 μg/mL G418, 300 μg/mL Hygromycin, 1% Glutamax and 1% Pen/Strep), the cells were washed with 2 mL of DPBS, 5 mL of cell dispersion (Invitrogen-13151014) was added to disperse the cells, the cells were incubated in an incubator at 37° C. for 1-2 minutes. The flask was gently patted to make the cells fall off. 5 mL of growth medium was added, and pipette was gently blown to suspend the cells. Cell counting was performed using Vi-Cell. The mixture was centrifuged at 1000 rpm for 5 minutes at room temperature, the supernatant was gently poured out, and the cells in FACS buffer were resuspended to a concentration of 1.5e6 cells per mL. 2. S1P and compounds were diluted with DMSO in a 384-well plate, and a volume of 500 nL was transferred to a 96 V-well plate (Cat #Axygen-WIPP02280). 3. 50 μL of cells were added to a 96-well plate; 4. The 96-well plate was incubated in a 37° C. 5% CO2 incubator for 2 hours. 5. The cells were centrifuged at room temperature at 1500 rpm for 5 minutes to remove the supernatant. 6. 100 μL of FACS buffer was added to the resuspended cells, centrifuged at 1500 rpm for 5 minutes, and the supernatant was removed. 7. The anti-human S1P1/EDG-1-Alex647 (R&D-FAB1864R) and anti-IgG2B-Alex647 (R&D-IC0041R) antibodies were diluted 200 times with FACS buffer. 8. 50 μL of antibody was added to 96 wells, and the plates were transferred to 4° C. for 30 minutes. 9. The cells were centrifuged at room temperature at 1500 rpm for 5 minutes to remove the supernatant. 10. 100 μL of FACS buffer was added to the resuspended cells. 11. The cells were centrifuged at 4° C. at 1500 rpm for 5 minutes to remove the supernatant. 12. After washing, the cells were resuspended in 50 μL of FACS buffer per well. 13. Cell samples were read using iQue Screener PLUS-VBR.

[4] = In vivo pharmacokinetics in rats, intravenous injection and oral administration; set-up: species or system Sprague Dawley rats; conditions: rat; for AUC(0-inf) / clearance / half-life / Cmax: male, Sprague-Dawley, plasma
Procedure: In this experimental embodiment, in vivo pharmacokinetic evaluation was performed in rats by intravenous injection and oral administration.
Experimental methods and conditions: male Sprague Dawley rats were given the test compounds 1 mg/kg (solvent 5% DMSO/15% Solutol/80% Saline) by intravenous injection and 1 mg/kg (solvent 0.5% MC) by oral gavage respectively. 5 min, 15 min, 30 min, 1 hr, 2 hr, 4 hr, 6 hr, 8 hr, 24 hr after administration, blood was collected from submandibular vein, each sample was collected about 0.20 mL, and heparin sodium was used for anti coagulation. After collection, the sample was placed on ice, and the blood was centrifuged to be measured within one hour. Blood drug concentration in plasma was detected by liquid chromatography tandem mass spectrometry (LC/MS/MS), and the pharmacokinetic parameters were calculated by Phoenix WinNonlin software.

[5] = intravenous administration 1 mg/kg

T1 sequence (P21453 whole entry): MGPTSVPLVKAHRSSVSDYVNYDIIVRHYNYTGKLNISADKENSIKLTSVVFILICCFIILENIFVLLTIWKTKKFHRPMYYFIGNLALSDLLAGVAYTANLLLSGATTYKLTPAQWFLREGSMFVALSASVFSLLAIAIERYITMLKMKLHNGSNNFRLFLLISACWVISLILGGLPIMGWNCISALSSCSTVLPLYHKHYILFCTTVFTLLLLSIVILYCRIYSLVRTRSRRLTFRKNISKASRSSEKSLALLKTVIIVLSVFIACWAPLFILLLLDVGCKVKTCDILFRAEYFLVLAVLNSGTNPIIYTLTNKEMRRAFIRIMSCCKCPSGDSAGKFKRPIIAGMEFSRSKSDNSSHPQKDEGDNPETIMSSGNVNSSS

| EC50 (S1P1 [1]) [nM] | EC50 (S1P1 [2]) [nM] | Structure (SMILES) | further results |
| --- | --- | --- | --- |
| 0.07 | 1.62 | CCc1c(CCC(=O)O)[nH]c2ccc(OCc3ccc(C4CCCC4)c(C(F)(F)F)c3)cc12 [Compound 2] | EC50 (S1P1 [3]): 0.32 nM |
| 0.0041 | 1.11 | O=C(O)CCc1[nH]c2ccc(OCc3ccc(C4CCOC4)c(C(F)(F)F)c3)cc2c1Cl (centres unmarked) [Compound 26] | – |
| 0.0017 | 1.23 | O=C(O)CCc1[nH]c2ccc(OCc3cnc(C4CCCC4)c(C(F)(F)F)c3)cc2c1Cl [Compound 25] | – |
| – | 1.18 | Cc1c(CCC(=O)O)[nH]c2ccc(OCc3cnc(C4CCCC4)c(C(F)(F)F)c3)cc12 [Compound 40] | – |
| – | 1.11 | Cc1c(CCC(=O)O)[nH]c2ccc(OCc3ccc(OC4CCCC4)c(C(F)(F)F)c3)cc12 [Compound 38] | – |
| 0.11 | 1.65 | O=C(O)CCc1[nH]c2ccc(OCc3ccc(C4CCC4)c(C(F)(F)F)c3)cc2c1Cl [Compound 22] | – |
| 0.56 | 1.47 | Cc1c(CCC(=O)O)[nH]c2ccc(OCc3ccc(C4CCOC4)c(C(F)(F)F)c3)cc12 (centres unmarked) [Compound 32] | – |
| 0.2 | 1.72 | O=C(O)CCc1cc2cc(OCc3ccc(OC4CCCC4)c(C(F)(F)F)c3)ccc2[nH]1 [Compound 37] | – |
| 0.3 | 0.85 | O=C(O)CCc1[nH]c2ccc(OCc3ccc(C4CCOCC4)c(C(F)(F)F)c3)cc2c1F [Compound 36] | – |
| 0.0072 | 1.73 | O=C(O)CCc1[nH]c2ccc(OCc3ccc(OC4CCCC4)c(C(F)(F)F)c3)cc2c1Cl [Compound 24] | – |
| 2.07 | – | O=C(O)C[C@H]1CCc2c1[nH]c1ccc(OCc3ccc(C4CCCC4)c(C(F)(F)F)c3)cc21 [APD334, reference compound] | EC50 (S1P1 [3]): 6.26 nM; AUC(0-inf) [4, 5]: 9410 ng·h/mL; clearance [4, 5]: 1.83 mL/min/kg; half-life [4, 5]: 5.2 h; AUC(0-inf) ([4]; oral administration 1 mg/kg): 4440 ng·h/mL; Cmax ([4]; oral administration 1 mg/kg): 341 ng/mL; half-life ([4]; oral administration 1 mg/kg): 5.5 h; F ([4]; oral administration 1 mg/kg): 46.3% |
| – | 5.35 | O=C(O)CCc1cc2cc(OCc3ccc(C4CCOCC4)c(C(F)(F)F)c3)ccc2[nH]1 [Compound 34] | – |
| 0.34 | 0.88 | Cc1c(CCC(=O)O)[nH]c2ccc(OCc3ccc(C4CCOCC4)c(C(F)(F)F)c3)cc12 [Compound 35] | – |
| 0.18 | 2.63 | O=C(O)CCc1cc2cc(OCc3ccc(C4CCOC4)c(C(F)(F)F)c3)ccc2[nH]1 (centres unmarked) [Compound 31] | – |
| 0.032 | 3.82 | O=C(O)CCc1[nH]c2ccc(OCc3ccc(C4CCCCC4)c(C(F)(F)F)c3)cc2c1Cl [Compound 23] | – |
| < 0.05 | 0.95 | O=C(O)CCc1cc2cc(OCc3ccc(C4CCCC4)c(C(F)(F)F)c3)ccc2[nH]1 [Compound 1] | – |
| 0.057 | 1.1 | O=C(O)CCc1[nH]c2ccc(OCc3ccc(C4CCOC4)c(C(F)(F)F)c3)cc2c1F (centres unmarked) [Compound 33] | – |
| 0.035 | 2.26 | O=C(O)CCc1[nH]c2ccc(OCc3ccc(C4=CCCC4)c(C(F)(F)F)c3)cc2c1Cl [Compound 21] | – |
| 0.0021 | 1.03 | O=C(O)CCc1[nH]c2ccc(OCc3ccc(C4CCOCC4)c(C(F)(F)F)c3)cc2c1Cl [Compound 27] | – |
| 0.15 | 0.62 | O=C(O)CCc1[nH]c2ccc(OCc3cnc(C4CCCC4)c(C(F)(F)F)c3)cc2c1F [Compound 30] | – |
| 0.16 | – | O=C(O)CCc1nc2cc(OCc3ccc(C4CCCC4)c(C(F)(F)F)c3)ccc2[nH]1 [Compound 6] | – |
| 0.07 | 1.86 | O=C(O)CCc1[nH]c2ccc(OCc3ccc(C4CCCC4)c(C(F)(F)F)c3)cc2c1F [Compound 14] | EC50 (S1P1 [3]): 0.14 nM; AUC(0-inf) [4, 5]: 10800 ng·h/mL; clearance [4, 5]: 1.55 mL/min/kg; half-life [4, 5]: 4.1 h; AUC(0-inf) ([4]; oral administration 1 mg/kg): 2340 ng·h/mL; Cmax ([4]; oral administration 1 mg/kg): 258 ng/mL; half-life ([4]; oral administration 1 mg/kg): 4 h; F ([4]; oral administration 1 mg/kg): 21.3% |
| 0.08 | 1.1 | O=C(O)CCc1cc2cc(OCc3ccc(C4CCCC4)c(C(F)(F)F)c3)c(F)cc2[nH]1 [Compound 18] | EC50 (S1P1 [3]): 0.69 nM |
| 0.65 | 1.96 | O=C(O)CCn1ccc2cc(OCc3ccc(C4CCCC4)c(C(F)(F)F)c3)ccc21 [Compound 12] | – |
| – | 2.08 | O=C(O)CCc1cc2cc(OCc3ccc(N4CCCC4)c(C(F)(F)F)c3)ccc2[nH]1 [Compound 28] | – |
| 0.5 | – | O=C(O)CCn1cnc2cc(OCc3ccc(C4CCCC4)c(C(F)(F)F)c3)ccc21 [Compound 4] | – |
| 0.21 | 1.78 | N#Cc1c(CCC(=O)O)[nH]c2ccc(OCc3ccc(C4CCCC4)c(C(F)(F)F)c3)cc12 [Compound 17] | – |
| – | 2.15 | O=C(O)CCc1cc2cc(OCc3cnc(C4CCCC4)c(C(F)(F)F)c3)ccc2[nH]1 [Compound 29] | – |
| 0.027 | 0.76 | O=C(O)CCc1[nH]c2ccc(OCc3ccc(OC4CCCC4)c(C(F)(F)F)c3)cc2c1F [Compound 39] | – |
